Test results from patent US6177475A, “Methods of using integrin modulators for treatment of inflammation” (priority 1997, dated 2001).

Key:
[1] = tested on: VLA-4 (VCAM-1); test: Adhesion of TPA-activated Jurkat cells to SVT2/VCAM-1 monolayers; assay type: cell-based; conditions: Homo sapiens, 0.75 h, SVT2/VCAM-1, TPA 125 ng/ml, 45 min
Protocol: SVT2 cells transfected with human ICAM-1 or VCAM-1 (SVT2/ICAM-1 and […], respectively) were plated into 96-well plates and cultured overnight. […] The labeled Jurkat cells were washed three times and resuspended at a density of 4×10^6 cells/ml in complete RPMI medium. Serial dilutions of Ajoene were prepared in complete RPMI medium. Aliquots of the cells (0.5 ml) were then mixed with an equal volume of Ajoene dilutions (1:1 v/v), and the mixtures incubated at 37° C. for 30 min. Thereafter, Ajoene-incubated cells were added in duplicate to SVT2/ICAM-1 and SVT2/VCAM-1 monolayers, and TPA was introduced into each well to the final concentration of 125 ng/ml. The plates were incubated at 37° C. for 45 min, after which the non-adherent cells were removed by washing with warm complete RPMI medium. The bound labeled cells were lysed by adding 1% Triton X-100 solution in 0.1 N HCl. The lysates were assayed in a gamma counter to determine the percentage of bound cells. […] Thus, coculturing of Jurkat cells with SVT2/ICAM-1 and SVT2/VCAM-1 cells makes it possible to assess, respectively, the function of IFA-1 and VLA-4 under identical conditions. In the absence of TPA, 10 and 20% of the added Jurkat cells adhered to SVT2/ICAM-1 and SVT2/VCAM-1 cells, respectively. […]

[2] = tested on: 111In-labeled neutrophils; test: Neutrophil recruitment to inflamed joints in rat adjuvant arthritis; assay type: in vivo; conditions: 50 mg/kg i.v.; for Accumulation of 111In-labeled Neutrophils (mean ± SEM): 2 h
Protocol: Rat adjuvant arthritis is characterized by integrin-mediated migration of ^51 Cr-labeled monocytes and ^111 In-labeled neutrophils into the inflamed synovium, which attains maximum between days 14 and 21 after the immunization. This model of human rheumatoid arthritis was used to assess in vivo effects of Ajoene on integrins that are known to be modulated by Ajoene in vitro.
Adjuvant arthritis was induced in 6-8 week old inbred male Lewis rats by immunization on the lower back with 0.5 mg Mycobacterium butyricum (Difco Laboratories, Inc., Detroit, Mich.) in 0.05 ml mineral oil in two sites subcutaneously at the base of the tail. All the animals developed polyarticular arthritis between days 11 and 13 after immunization. For clinical scoring, 0-4 points were assigned per limb and tail, based on the severity of erythema, swelling, and limitation of movement (the maximal possible score was 20).
Rat blood monocytes and neutrophils for migration studies were obtained by the hydroxyethyl starch (HES) exchange transfusion technique. The total blood volume of a donor rat was exchanged using 50 ml 6% HES solution in saline (DuPont Chemical Co., Dorval, Canada). After recovery of 40-45 ml blood/HES perfusate, the red cells were allowed to sediment (1 g) and the leukocyte-rich plasma was harvested. The leukocytes were recovered by centrifugation, resuspended in calcium-magnesium-free Tyrode's solution supplemented with 10% platelet-poor plasma (TS-PPP), and centrifuged in a discontinuous 63%/74% gradient of isotonic Percoll (Pharmacia Fine Chemicals, Dorval, Canada). The top layer, containing mononuclear cells (MN), and the cells in the 63%/74% interface, containing neutrophils, were collected, washed, and resuspended in TS-PPP. To obtain purified monocytes, the osmolality of the MN suspension was increased by adding 9% NaCl, and the suspension was centrifuged in a 40%/55%/58% Percoll gradient; monocytes were harvested at 40%/55% and […] interfaces, washed, and resuspended in TS-PPP.
Thereafter, monocytes (10^7 cells/ml) were labeled with 75 microCurie/ml of Na2^51 CrO4 (Amersham, Oakville, Canada) at 37° C. for 30 min. Neutrophils (10^7 cells/ml) were labeled with 1 microCurie/ml of ^111 In oxine (Amersham) for 10 min. Both populations were washed to remove excess labeled material and checked for viability and purity. The viability of either cell population used in the experiments was in excess of 95% (as double-checked by Trypan blue exclusion and neutral red staining). The separation procedure described above ordinarily produced populations that contained no less than 90% monocytes and no less than 95% neutrophils. […]

[3] = tested on: MT-2 cells / K562/VCAM-1 cells (HTLV-I); test: Syncytium formation of HTLV-I-infected MT-2 cells with K562/VCAM-1 cells; assay type: cell-based; conditions: Primate T-lymphotropic virus 1, MT2, 4 h
From the text: MT-2 cells harbor the complete genome of human T cell lymphotropic virus type 1 (HTLV-I), and they transmit the virus to susceptible uninfected cells in cocultures. The transmission manifests itself as fusion of MT-2 cells with the uninfected cells, followed by syncytium formation. K562 cells transfected with VCAM-1, a ligand of the integrin VIA-4, were used as a fusion partner for MT-2 cells. MT-2 and K562/VCAM-1 cells were washed and resuspended in complete RPMI medium at a density of 2×10^6 /ml. MT2 cells were seeded into flat-bottom 96-well microtiter plates (100 microliters per well). Serial dilutions of Ajoene or of the disintegrin kistrin (final concentration) were introduced into the wells, and the plate was incubated for 30 min prior to addition of 100 microliters of K562/VCAM-1 cells. The plates were then incubated for 4 h before scoring syncytium formation.

[4] = tested on: GP IIb/IIIa; conditions: cited from earlier work

Compound: C=CCSSC=CC[S+]([O-])CC=C (stereo not drawn) [Ajoene, 4,5,9-trithiadodeca-1,6,11-triene-9-oxide]
- IC50 [1]: ~20 µM
- inhibition of neutrophil recruitment to the talar joints [2]: ~ 50%
- Accumulation of 111In-labeled Neutrophils (mean ± SEM) ([2]; talar joint, P < 0.001): 15,052 cpm per sample
- Accumulation of 111In-labeled Neutrophils (mean ± SEM) ([2]; tarsal joint, P = 0.085): 7,353 cpm per sample
- Accumulation of 111In-labeled Neutrophils (mean ± SEM) ([2]; vertebral joints, P = 0.089): 3,658 cpm per sample
- IC50 ([3]; read-out: IC50 for syncytium formation): ~0.6 µM
- IC100 ([3]; read-out: IC100 for syncytium formation): 4.3 µM
- inhibition of platelet aggregation by inactivation of GP IIb/IIIa ([4]; Apitz-Castro et al., 1986): inhibit platelet aggregation by inactivating allosterically the platelet integrin, GP IIb/IIIa
- reversibility of integrin inhibition [4]: reversible
